Source: US20090269394A1, “METHODS AND COMPOSITIONS FOR TREATING ONCHOMYCOSIS” (priority 2008, published 2009)
Values after ≈ are worked out from the molar mass of the structure shown. Read-outs that look alike come from different tables or passages of the source.

Key:
Trichophyton rubrum [1] = experiment: microbe, parasite or virus in culture; type: cell-based
Procedure: (§1) Phenotypically resistant isolates were tested for MICs and compared to parental MICs.

Epidermophyton floccosum [2] = experiment: microbe, parasite or virus in culture; type: cell-based; conditions: read-out: Final MIC
Procedure: as §1

[3] = tested on: Trichophyton mentagrophytes; experiment: microbe, parasite or virus in culture; type: cell-based
Procedure: as §1

Alternaria spp. = experiment: MIC against rare onychomycosis pathogens (CLSI M 38-A); type: cell-based; conditions: 3 isolates; NB-002 as μg CPC/ml
Description: (§2) Methods: All fungi were from patients, many of which had onychomycosis or another tinea infection.

Paecilomyces spp. = experiment: as above; type: cell-based; conditions: 4 isolates; NB-002 as μg CPC/ml
Description: as §2

Aspergillus spp. = experiment: as above; type: cell-based; conditions: 5 isolates; NB-002 as μg CPC/ml
Description: as §2

Acremonium spp. = experiment: as above; type: cell-based; conditions: 5 isolates; NB-002 as μg CPC/ml
Description: as §2

Trichophyton soundanense = experiment: as above; type: cell-based; conditions: 3 isolates; NB-002 as μg CPC/ml
Description: as §2

Epicoccum nigrum = experiment: as above; type: cell-based; conditions: 3 isolates; NB-002 as μg CPC/ml
Description: as §2

Trichophyton verrucosum = experiment: as above; type: cell-based; conditions: 3 isolates; NB-002 as μg CPC/ml
Description: as §2

Curvularia spp. = experiment: as above; type: cell-based; conditions: 3 isolates; NB-002 as μg CPC/ml
Description: as §2

Chaetomium spp. = experiment: as above; type: cell-based; conditions: 3 isolates; NB-002 as μg CPC/ml
Description: as §2

Phoma sp. = experiment: as above; type: cell-based; conditions: 3 isolates; NB-002 as μg CPC/ml
Description: as §2

Scedosporium spp. = experiment: as above; type: cell-based; conditions: 5 isolates; NB-002 as μg CPC/ml
Description: as §2

M. audouinii = experiment: MIC against species that cause tinea capitis; type: cell-based; conditions: M. audouinii n = 10
T. violaceum = experiment: MIC against species that cause tinea capitis; type: cell-based; conditions: T. violaceum n = 10
[4] = tested on: Trichophyton mentagrophytes; type: cell-based; conditions: 10^7 conidia plated; NBD012-d; drug plate 0.0625 μg/ml
Trichophyton rubrum [5] = type: cell-based; conditions: 10^7 conidia plated; NBD031-c; drug plate 0.125 μg/ml
Trichophyton tonsurans = experiment: MIC/MFC microtiter broth dilution; type: cell-based
Epidermophyton floccosum [6] = experiment: MIC/MFC microtiter broth dilution; type: cell-based; conditions: n = 6 isolates; NB-002 as μg CPC/ml
T. rubrum = experiment: Time-kill experiments on mycelia and microconidia; type: cell-based, Trichophyton rubrum; conditions: 16×MIC, up to 24 hours, nongrowth conditions (FIG. 10)
Procedure: Time-kill experiments. […] Part of the conidial suspension was pelleted and resuspended in RPMI 1640 medium and grown for 16-18 hours overnight at room temperature to allow germination of microconidia. After germination, the hyphae were collected by centrifugation and resuspended in distilled water. […] Colony-forming units were counted after four days of incubation at 35° C.

[7] = tested on: Candida albicans isolates; experiment: MIC/MFC microtiter broth dilution; type: cell-based; conditions: NB-002 as μg CPC/ml; for MIC90: Candida albicans, read-out: MIC90
[8] = tested on: Trichophyton mentagrophytes; experiment: MIC/MFC microtiter broth dilution; type: cell-based
Microsporum canis = experiment: MIC/MFC microtiter broth dilution; type: cell-based
[9] = T. tonsurans (n = 6), NB-002 as μg CPC/ml
[10] = T. tonsurans n = 10 (tinea capitis species)
[11] = Azole-Resistant isolates (n = 24)
[12] = Azole-Susceptible isolates (n = 10)
[13] = n = 14 isolates, NB-002 as μg CPC/ml
[14] = M. canis (n = 5), NB-002 as μg CPC/ml
[15] = M. canis n = 10 (tinea capitis species)

**Q.** For CN(C/C=C/C#CC(C)(C)C)Cc1cccc2ccccc12 [Terbinafine], which MIC (Trichophyton rubrum [1]; read-out: Final MIC, isolate NBD031-a, selected on NB-002 drug plate 16 μg/ml) is on record?
**A.** The MIC was 0.016 µg/mL (≈ 0.0549 µM).

**Q.** What about the MIC (Trichophyton rubrum [1]; read-out: Final MIC, isolate NBD031-b, selected on itraconazole drug plate 0.125 μg/ml) of the same molecule?
**A.** Its MIC is 0.016 µg/mL (≈ 0.0549 µM).

**Q.** And the MIC (Trichophyton rubrum [1]; read-out: Final MIC, isolate NBD031-c, selected on terbinafine drug plate 0.125 μg/ml)?
**A.** The MIC was 0.016 µg/mL (≈ 0.0549 µM).

**Q.** What about the MIC (Epidermophyton floccosum [2]) of the same molecule?
**A.** Its MIC is 0.016 µg/mL (≈ 0.0549 µM).

**Q.** And the MIC ([3]; read-out: Final MIC, isolate NBD012-a, selected on NB-002 drug plate 8 μg/ml)?
**A.** The MIC was 0.031 µg/mL (≈ 0.106 µM).

**Q.** What about the MIC ([3]; read-out: Final MIC, isolate NBD012-b, selected on NB-002 drug plate 16 μg/ml) of the same molecule?
**A.** The MIC was 0.031 µg/mL (≈ 0.106 µM).

**Q.** And the MIC ([3]; read-out: Final MIC, isolate NBD012-c, selected on NB-002 drug plate 32 μg/ml)?
**A.** Its MIC is 0.016 µg/mL (≈ 0.0549 µM).

**Q.** And the MIC ([3]; read-out: Final MIC, isolate NBD012-d, selected on terbinafine drug plate 0.0625 μg/ml)?
**A.** The MIC was 0.031 µg/mL (≈ 0.106 µM).

**Q.** What about the MIC ([3]; read-out: Final MIC, isolate NBD013-a, selected on itraconazole drug plate […]) of the same molecule?
**A.** Its MIC is 0.016 µg/mL (≈ 0.0549 µM).

**Q.** And the MIC ([3]; read-out: Final MIC, isolate NBD014-a, selected on NB-002 drug plate 32 μg/ml)?
**A.** The MIC was 0.016 µg/mL (≈ 0.0549 µM).

**Q.** What about the MIC range (Alternaria spp.) of the same molecule?
**A.** The MIC range was 1 to 2 µg/mL.

**Q.** What about the MIC range (Paecilomyces spp.) of the same molecule?
**A.** The MIC range was 0.25 to 0.5 µg/mL.

**Q.** What about the MIC range (Aspergillus spp.) of the same molecule?
**A.** Its MIC range is 0.03 to 0.25 µg/mL.

**Q.** And the MIC range (Acremonium spp.)?
**A.** Its MIC range is 0.125 to 1 µg/mL.

**Q.** What about the MIC range (Trichophyton soundanense) of the same molecule?
**A.** Its MIC range is “≦0.004 ug/ml”.

**Q.** And the MIC range (Epicoccum nigrum)?
**A.** The MIC range was 0.03 to 0.06 µg/mL.

**Q.** What about the MIC range (Trichophyton verrucosum) of the same molecule?
**A.** Its MIC range is “≦0.004-0.015 ug/ml”.

**Q.** What about the MIC range (Curvularia spp.) of the same molecule?
**A.** Its MIC range is 0.03 to 1 µg/mL.

**Q.** What about the MIC range (Chaetomium spp.) of the same molecule?
**A.** The MIC range was 1 to 2 µg/mL.

**Q.** What about the MIC range (Phoma sp.) of the same molecule?
**A.** Its MIC range is 0.03 µg/mL (≈ 0.103 µM).

**Q.** And the MIC range (Scedosporium spp.)?
**A.** The MIC range was over 2 µg/mL.

**Q.** What about the MIC50 (M. audouinii) of the same molecule?
**A.** The MIC50 was 0.06 µg/mL (≈ 0.206 µM).

**Q.** And the MIC90 (M. audouinii)?
**A.** The MIC90 was 0.06 µg/mL (≈ 0.206 µM).

**Q.** And the “MIC range” value (M. audouinii; in µg/mL)?
**A.** The value was 0.03-0.06.

**Q.** What about the MIC50 (T. violaceum) of the same molecule?
**A.** Its MIC50 is 0.03 µg/mL (≈ 0.103 µM).

**Q.** And the MIC90 (T. violaceum)?
**A.** Its MIC90 is 0.03 µg/mL (≈ 0.103 µM).

**Q.** And the “MIC range” value (T. violaceum; in µg/mL)?
**A.** Its value is 0.008-0.03.

**Q.** What about the “# CFU recovered” value [4] of the same molecule?
**A.** Its value is 2.

**Q.** And the “# CFU recovered” value (Trichophyton rubrum [5])?
**A.** Its value is 1.

**Q.** What about the MFC Range (Trichophyton tonsurans; [9]) of the same molecule?
**A.** The MFC Range was 0.06 to 0.12 µg/mL.

**Q.** And the MIC range (Trichophyton tonsurans; [9])?
**A.** Its MIC range is 0.008 to 0.015 µg/mL.

**Q.** What about the MIC50 (Trichophyton tonsurans; [10]) of the same molecule?
**A.** Its MIC50 is 0.016 µg/mL (≈ 0.0549 µM).

**Q.** What about the MIC90 (Trichophyton tonsurans; [10]) of the same molecule?
**A.** The MIC90 was 0.016 µg/mL (≈ 0.0549 µM).

**Q.** And the “MIC range” value (Trichophyton tonsurans; T. tonsurans n = 10 (tinea capitis species), in µg/mL)?
**A.** Its value is 0.008-0.016.

**Q.** What about the “MFC Range” value (Epidermophyton floccosum [6]) of the same molecule?
**A.** The value was 0.0313 to 1 µg/mL.

**Q.** And the “MIC range” value (Epidermophyton floccosum [6])?
**A.** The value was 0.0625 to 0.25 µg/mL.

**Q.** And the “reduction of colony counts / activity on mycelia and microconidia” value (T. rubrum)?
**A.** The value was “no activity”.

**Q.** And the MFC90 [7, 11]?
**A.** The MFC90 was over 1 µg/mL.

**Q.** What about the MFC90 [7, 12] of the same molecule?
**A.** Its MFC90 is over 1 µg/mL.

**Q.** What about the MIC90 [7, 11] of the same molecule?
**A.** Its MIC90 is over 1 µg/mL.

**Q.** And the MIC90 [7, 12]?
**A.** Its MIC90 is over 1 µg/mL.

**Q.** What about the MIC90 ([8]; Trichophyton mentagrophytes) of the same molecule?
**A.** The MIC90 was 0.125 µg/mL (≈ 0.429 µM).

**Q.** What about the MIC50 ([8]; Trichophyton mentagrophytes, read-out: MIC50) of the same molecule?
**A.** Its MIC50 is 0.0313 µg/mL (≈ 0.107 µM).

**Q.** And the MFC50 [8, 13]?
**A.** Its MFC50 is 0.25 µg/mL (≈ 0.858 µM).

**Q.** What about the MFC90 [8, 13] of the same molecule?
**A.** Its MFC90 is over 1 µg/mL.

**Q.** And the “MIC range” value [8, 13]?
**A.** The value was 0.0313 to 0.25 µg/mL.

**Q.** And the MFC Range (Microsporum canis; [14])?
**A.** The MFC Range was 0.06 to 0.12 µg/mL.

**Q.** And the MIC range (Microsporum canis; [14])?
**A.** The MIC range was 0.004 to 0.03 µg/mL.

**Q.** And the MIC50 (Microsporum canis; [15])?
**A.** The MIC50 was 0.06 µg/mL (≈ 0.206 µM).

**Q.** What about the MIC90 (Microsporum canis; [15]) of the same molecule?
**A.** The MIC90 was 0.06 µg/mL (≈ 0.206 µM).

**Q.** And the “MIC range” value (Microsporum canis; M. canis n = 10 (tinea capitis species), in µg/mL)?
**A.** Its value is 0.06.
